Measurements: PubChem BioAssay AID624462 (National Center for Advancing Translational Sciences (NCATS), 2012)
≈ marks a conversion by molar mass, not a printed value.

Test system: PBS pH 7.4 kinetic solubility, LC-UV/MS
Assay: qHTS for Inhibitors of mutant isocitrate dehydrogenase 1 (IDH1): Aqueous Kinetic Solubility
Conditions: active compounds read high
From the text: Malignant glioblastomas (WHO grade IV), including primary and secondary glioblastomas, are among the most lethal with a median survival of one year, and unfortunately they are also the most prevalent type of brain tumors. By and large the standard of care of gliomas remains the use of the oral alkylating agent temozolomide and radiotherapy following surgical tumor resection. There is an urgent unmet medical need for novel therapeutics for gliomas. IDH mutations occur in up to 70% of grade II-IV secondary glioblastomas, and IDH1 R132H is the most prevalent mutation. […] Wild-type (WT) IDH1 catalyzes the conversion of isocitrate to a-ketoglutarate with the concomitant reduction of NADP+ to NADPH. In contrast, IDH1 R132H catalyzes the conversion of a-ketoglutarate to 2-hydroxyglutarate (2-HG) with the concomitant oxidation of NADPH to NADP+ [5]. Recently, a second significant advancement for the field was the finding that IDH is an oncogene, and that its metabolic product 2-HG may contribute to the pathogenesis of IDH-mutated cancers. […] Although this link to cancer is tantalizing, the direct evidence of how 2-HG drives pathogenesis of gliomas and AML remains a subject of further research. This bioassays provides profiling data on aqueous kinetic solubility (PBS @ pH7.4) of the IDH probe. […]
1. […] Concentration of the supernatant was determined by LC-UV or LC-MS/MS

**Q.** For `Cc1ccccc1C(C(=O)NC1CCCC1)N(C(=O)Cn1cnc2ccccc21)c1cccc(F)c1` (stereo unspecified), which solubility is on record?
**A.** The solubility was 54.3 µM (≈ 26.3 µg/mL).
